Measurements reported in patent publication US10869858B2, “Therapeutic agent for amyotrophic disorders” (TOHOKU UNIVERSITY, priority 2015, dated 2020).

What was measured:
[1] = test system: ALS patient-derived fibroblasts; experiment: Inhibitory effect on cell death of ALS patient-derived fibroblasts induced by oxidative stress (BSO 100 μmol/L), Method 1, Cell Counting Kit-8; format: cell-based; conditions: 100 μmol/L BSO; compound at 10 and 30 μmol/L; two days with compound; FIG. 1
Protocol: (§1) ALS patient-derived fibroblasts can be used to confirm the inhibitory effect of the compound of the present invention on cell death induced by treating the ALS patient-derived fibroblasts with the glutathione synthesis inhibitor, L-buthionine(S, R)sulfoximine (BSO).
6.4×10^3 Cells per well of ALS patient-derived fibroblasts were seeded in a 96-well cell culture plate using a DMEM medium containing 1% FBS. One day after cell seeding, BSO was mixed in the culture medium so that the concentration thereof was 100 μmol/L. After culturing in the presence of BSO for one day, the compound of Example 1 was mixed in the culture medium so that the concentration thereof is 1, 3, 10 or 30 μmol/L. After culturing in the presence of the compound for another two days, the number of living cells in each well was counted by using Cell Counting Kit-8 (manufactured by Dojindo Laboratories) to calculate cell viability. Here, wells to which both BSO and the compound were not added but distilled water and DMSO that were solvents for BSO and the compound, respectively were added were used as a control of the oxidative stress loading; wells to which both BSO and the compound were added were used as a control for the effect of the test compound.

[2] = test system: ALS patient-derived fibroblasts; experiment: Cell viability of ALS patient-derived fibroblasts treated with BSO 500 μmol/L, Method 2, Cell Counting Kit-8; format: cell-based; conditions: 500 μmol/L BSO; compound at 0.1, 0.3, 1, 3 and 10 μmol/L; three days with compound; FIG. 2
Protocol: as §1
(§2) 3.0×10^3 Cells per well of ALS patient-derived fibroblasts were seeded in a 96-well cell culture plate using a DMEM (low glucose) medium containing 1% FBS. One day after cell seeding, BSO was mixed in the culture medium so that the concentration thereof is 500 μmol/L. After culturing in the presence of BSO for one day, the compound of Example 1 was mixed in the culture medium so that the concentration thereof is 0.1, 0.3, 1, 3 or 10 μmol/L. After culturing in the presence of the compound for another three days, the number of living cells in each well was counted by using Cell Counting Kit-8 (manufactured by Dojindo Laboratories) to calculate cell viability. In addition, the degree of cell damage was measured by using LDH Cytotoxicity Detection Kit (manufactured by Takara Bio Inc.). Here, wells to which both BSO and the compound were not added but distilled water and DMSO that were solvents for BSO and the compound, respectively were added were used as a control of the oxidative stress loading; wells to which both BSO and the compound were added were used as a control for the effect of the test compound.

[3] = test system: ALS patient-derived fibroblasts; experiment: Degree of cell damage of ALS patient-derived fibroblasts treated with BSO 500 μmol/L, Method 2, LDH Cytotoxicity Detection Kit; format: cell-based; conditions: 500 μmol/L BSO; compound at 0.1, 0.3, 1, 3 and 10 μmol/L; three days with compound; FIG. 2
Protocol: as §1, §2

[4] = test system: wobbler mice; experiment: Rotarod test in ALS animal models (wobbler mice); format: in vivo; conditions: 150 mg/kg orally once a day, 16 days after administration start, 10 rpm, n=14; control group 43%; P=0.018
Protocol: To 4-week-old wobbler mice, the compound of Example 1 (150 mg/kg) or a solvent, a 0.5% aqueous solution of methyl cellulose as a control was orally administered at a rate of 10 mL/kg once a day. Sixteen days after administration start date, the animals were placed on a mouse rotarod (manufactured by Muromachi Kikai Co., Ltd.) set at a rotation speed of 10 rpm and the time to fall was measured (rotarod test). The rotarod walking time was measured three times, and the upper limit of one measurement time was 300 seconds.

O=C(CC(C(=O)O)c1c[nH]c2ccccc12)c1ccc(F)cc1F (stereo not shown) [Example 1, 4-(2,4-difluorophenyl)-2-(1H-indol-3-yl)-4-oxobutanoic acid]
inhibition of cell death induced by BSO (cell viability) [1]: statistically significantly inhibited cell death | prevention of low cell viability induced by BSO [2]: statistically significantly prevented the low cell viability | prevention of cytotoxicity (degree of cell damage, LDH) induced by BSO [3]: statistically significantly prevented | occurrence ratio of animals whose rotarod walking time exceeded 300 seconds [4]: 86%
